Test [1] concerns human peripheral blood leukocytes (HPBLs). In words: HPBL 3H-thymidine incorporation (proliferation). It counts as cell-based. The arrangement: reference not given here. An excerpt: (§1) C. […] This model is used to correlate the effects of biomodulators on the expression of immune response in vitro. The plaque assay disclosed in this reference is used for the determination of the effect of biomodulators on the specificity, class and subclass of individual clones.
(§2) A. Purification of PWM and separation of the differentiative and proliferative functions Pokeweed Mitogen (PWM) and three of its isomitogens, Pa-1 and Pa-5, which are primarily differentiative in nature, and Pa-2 which is primarily proliferative, were prepared according to the method of Waxdal, supra, except that the iso-mitogens were finally purified by isoelectric focusing.
(In general: Dividing cells build labelled thymidine or BrdU into new DNA.)

Test [2] has as its system canine glioma cells. The test can be described thus: cytotoxicity, simple survival (T50%) of canine glioma cells. The conditions noted are these: Canis lupus familiaris, Glioma cell, read-out: T 50% (50% inhibitory concentration on simple survival). It counts as cell-based. As for the experimental part: (§3) Cytotoxicity was determined as a function of simple survival (T50%), adherence (ADH50%) and thymidine incorporation (I50%) of the cells.
(§4) Estimates of the 50% inhibitory concentrations of the various drugs tested on simple survival (T50%) and adherence (ADH50%) for canine glioma cells.

The subject of test [3] is canine glioma cells. In words: adherence (ADH50%) of canine glioma cells. It counts as cell-based. The conditions noted are these: Canis lupus familiaris, Glioma cell. Here is the method:
as §3, §4

The test system of test [4] is canine glioma cells. In words: thymidine incorporation (I50%) of canine glioma cells. In kind it is cell-based. The conditions noted are these: Canis lupus familiaris, Glioma cell. As for the experimental part:
as §3
Estimates of the I50% of the various drugs tested on thymidine incorporation of canine glioma cells in culture.

The test system of test [5] is canine glioma cells. The test can be described thus: canine glioma generation times, Compound IIe'. In kind it is cell-based. As for the experimental part:
The cells were harvested every 72 hours after the controls had reached 85% confluency. Generation time (Tg) was determined as the number of: hours required for the cell population to double.
Mean of triplicate determinations. Canine glioma cells were grown under conditions to promote exponential growth characteristics; 2×10^5cells in a T-25 flask. The cells were harvested every 72 hours after the controls had reached approximately 85% confluency. The drug was added at the initiation of culture in DMSO, the control cultures had just DMSO. The drug concentration was adjusted with DMSO so that the final concentration of DMSO was always 0.5%.

Test [6] has as its system human colon carcinoma cell line (LS-174). In words: LS-174 generation times, Compound IIe'. It counts as cell-based. Here is the method:
The procedure of Example VA, above, was repeated except a human colon carcinoma cell line (LS-174) was used instead of the canine glioma cell line.
Mean of triplicate determinations. LS-174 cells (human colon carcinoma) were grown under conditions to promote exponential growth characteristics; 2×10^5 cells in a T-25 flask. The cells were harvested every 72 hours after the controls had reached approximately 85% confluency. The drug was added at the initiation of culture in DMSO, the control cultures had just DMSO. The drug concentration was adjusted with DMSO so that the final concentration of DMSO was always 0.5%.

The target of test [7] is T1, HMGCoA reductase (Rattus norvegicus, UniProt P51639).
T1 sequence (P51639 1-887): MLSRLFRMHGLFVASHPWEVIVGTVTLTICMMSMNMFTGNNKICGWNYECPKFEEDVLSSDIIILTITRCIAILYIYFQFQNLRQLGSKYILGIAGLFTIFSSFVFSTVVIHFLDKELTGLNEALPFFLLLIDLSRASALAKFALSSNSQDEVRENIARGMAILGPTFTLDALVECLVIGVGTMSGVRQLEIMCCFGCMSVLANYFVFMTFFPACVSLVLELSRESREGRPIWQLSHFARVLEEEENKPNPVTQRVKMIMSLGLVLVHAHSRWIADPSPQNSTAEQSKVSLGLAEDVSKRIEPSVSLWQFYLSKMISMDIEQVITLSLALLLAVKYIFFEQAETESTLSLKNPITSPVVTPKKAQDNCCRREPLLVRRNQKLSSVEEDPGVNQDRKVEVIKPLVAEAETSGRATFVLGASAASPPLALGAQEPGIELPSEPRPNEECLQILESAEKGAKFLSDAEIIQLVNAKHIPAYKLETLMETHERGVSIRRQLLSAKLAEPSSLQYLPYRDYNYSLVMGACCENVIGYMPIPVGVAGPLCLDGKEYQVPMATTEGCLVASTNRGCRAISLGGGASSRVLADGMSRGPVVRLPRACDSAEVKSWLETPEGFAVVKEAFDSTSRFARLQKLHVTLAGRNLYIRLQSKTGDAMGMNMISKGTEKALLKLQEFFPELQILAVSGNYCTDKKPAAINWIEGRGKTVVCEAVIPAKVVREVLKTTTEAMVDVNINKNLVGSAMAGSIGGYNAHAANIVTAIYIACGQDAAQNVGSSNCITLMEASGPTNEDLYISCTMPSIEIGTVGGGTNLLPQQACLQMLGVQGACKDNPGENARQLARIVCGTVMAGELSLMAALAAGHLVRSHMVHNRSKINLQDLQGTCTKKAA
In words: inhibition of rat liver HMGCoA reductase activity. To be noted: read-out: IC50 HMG-CoA reductase. The arrangement: from tissue; host or cells: rat liver. In kind it is biochemical. The source says:
reductase activity; data obtained according to Example IA.

The target in test [8] is T1, HMGCoA reductase. The test can be described thus: HMG-CoA reductase inhibition, ED50. It counts as in vivo. The arrangement: from tissue; host or cells: whole animal (in vivo dose in μg/kg). To be noted: HMG-CoA reductase inhibitor.
For test [9], the system named is human peripheral blood leukocytes (HPBLs). In words: HPBL plaque forming cell (PFC) assay / IgG production in vitro (differentiation). In kind it is cell-based.
From the text: as §1, §2
Human peripheral blood leukocytes were cultured in a standard tissue culture medium. Aliquots of these cultured cells (1,000,000 cells/ml medium) were cultured for 6 hours, and the specified amount of Formula II compound was added; the cells were then cultured for an additional 90 hours. Sheep red blood cells (SRBC) conditioned with class-specific (IpG) goat anti-human antiserum (1:400) for 2 hours; then guinea pig complement (2%) for 2 hours were conjugated to Protein A as described in detail in Radioimmunoimaging and Radioimmunotherapy, Eds.

In test [10] the test system is canine glioma (CG) specific IgG antibody. In words: CG-specific antibody (IgG) titer in a dog. In kind it is in vivo.
The subject of test [11] is CG tumor. The test can be described thus: chromium-release cell-mediated lympholysis vs. CG tumor in a dog. In kind it is in vivo. The source says:
Cellular immune response reflected the results reported in III, 1 above. […] This also is in the absence of CG antigen exposure. […] Thus, both cellular and humoral immunity appear to be modulatable in the absence of antigen by the compounds of the instant invention.

The test system of test [12] is canine glioma cells. In words: in vivo inhibition of canine glioma in nude rats, compound IIc'. As for the experimental part: Fifty four nude rats (Harlan) were injected in the right flank with 5×10^6 canine glioma cells. Animals at the time of injection were between 52 and 63 days old and weighed approximately 200 g. The rats were divided into 7 groups, each group having a total number of 7 rats except for the control group, which totalled 12 animals. Compound IIc' was administered to the experimental animals at one of the following doses for each experimental group: 100 μg/kg, 10 μg/kg, 1 μg/kg, 0.1 μg/kg, 0.01 μg/kg and 0.001 μg/kg (phosphate buffer saline, M, W, F, I.P.). The control animals were injected with PBS (phosphate buffered saline) only. The volume of each injection was 100 μl. The injections of drug were simultaneously begun with injection of tumor cells. The animals were injected with the appropriate dosage of drug ([…]) by I.P. injection and tumor length, width and depth were measured using caliphers each Monday, Wednesday and Friday (M, W, F) morning for approximately 9 weeks. Each point on the graphs represents the total of all rats for each group. […] The data were normalized for the greater number of control animals by multiplying the total tumor volume for the control animals by 7/12.

The nature of test [13]: biomodulator assay (general). The conditions noted are these: in words. An excerpt: All biomodulators will have at least the following effects, which can be measured as indicated above:
a. Biomodulators cause, at a concentration in the general range of 100 pM-1 μm, the differentiation of lymphocytes. This differentiation can be detected by, for example, the increased production of specific and non-specific antibodies in response to the presence of biomodulator in the culture medium, e.g., according to the HPBL method discussed above in C, or the alteration in the class of antibodies being produced by a cell line, e.g., from IgM to IgG, e.g., according to the method disclosed in the same reference.
b. Biomodulators cause, at a concentration in the general range of 100 pM-1 μm, the alteration of the cell surface oligosaccharide display of IMR-90 cells in culture as discussed in A. above.
Activity in both of these assays is a necessary and sufficient measure of whether or not a given substance is a biomodulator, as defined herein.

Test [14] relates to TNP-Ficoll. In words: in vivo antibody (PFC) response to T-independent antigen TNP-Ficoll. The arrangement: species or system mouse. To be noted: in words. As for the experimental part:
In this case both IgM and IgG hapten specific responses were recorded as well as non-antigen specific plaque responses (Ig-PFC) using a Protein A coated red blood cell target.
The TNP-Ficoll antigen is administered as the SRBC antigen was above, by i.p. injection and the response assessed by conjugating the TNP hapten directly to the SRBC target, thus obviating any potential "carrier" effect. […] In this case, a third experimental parameter has been added to the study, the production of non-specific immunoglobulin (Ig-PFC). This parameter provides information on the general status of the humoral response regardless of antigen specificity. The TNP-Ficoll antigen does elicit a modest Ig-PFC response but little if any IgG specific response. […] In this case there is a very large specific and non-specific augmentation.

“Also recorded” adds a separate entry of the source.

In general, ED50 refers to the dose at which the effect has come halfway, by size or by number of responders. For the compound `CC(C)OC(=O)C[C@H](O)C[C@@H](O)/C=C/c1c(C(C)C)nc(-c2ccccc2)n1-c1ccc(F)cc1` (relative stereo) [Compound IIe'], in [1], the “Proliferation ((3H) thymidine incorporation into DNA)” value stood at 0.85. Moreover, the IC50 in test [2] (24 h) worked out at 750 nM; in test [2] (72 h), 800 nM; in [2] (96 h), 900 nM; in test [3] (24 h), 75 nM; in test [3] (72 h) it was 70 nM; in test [3] (96 h) it was 75 nM. For the same compound, the IC50 in [4] (24 h, first four lines, read-out: I50% (thymidine incorporation)) was 50 nM; in test [4] (48 h, first four lines, read-out: I50% (thymidine incorporation)) it was 75 nM; in test [4] (48 h, second four lines, read-out: I50% (thymidine incorporation)), 75 nM; in test [4] (72 h, first four lines, read-out: I50% (thymidine incorporation)) it was 80 nM; in test [4] (96 h, first four lines, read-out: I50% (thymidine incorporation)), 50 nM; in [4] (96 h, second four lines, read-out: I50% (thymidine incorporation)), 50 nM. Moreover, the IC50 in test [4] (text to Table V, read-out: I50% (thymidine incorporation into DNA)) was 50 to 80 nM; in test [4] (24 h, second four lines, read-out: I50% (thymidine incorporation)) it was 100 nM; in test [4] (72 h, second four lines, read-out: I50% (thymidine incorporation)) it was 30 nM; in test [7], 3 nM. For the same compound, the “% Change of Tg” value in [5] (10 nM, 72 × 3 h) was found to be 180%. In addition, the Tg amounted to 25.3 h in test [5] (10 nM, 72 h, control 18.6) and 84.9 h in test [6] (10 nM, 72 h, control 26.5). Further, the contact inhibition result in [5] (in words) is given as “showed evidence of contact inhibition as the cells approached confluency”. For the same compound, in test [6] (two passages, in words), the “generation time after drug withdrawal” value was “the generation time returned to control levels”. In test [8], this compound displayed an ED50 of 0.025 mg/kg.
Regarding `CC(C)OC(=O)C[C@H](O)C[C@@H](O)/C=C/c1c(C(C)C)nc(-c2ccccc2)n1-c1ccc(F)cc1` [Compound IIc'], the “Inhibitory Concentration (inhibiting nonspecific IgG production below normal production)” value in [9] (HPBL) was “none found”. Moreover, the “Stimulation of IgG Production, Concentration” value in test [9] (HPBL) came out at 100 pM. Further, the “optimal dose in vitro, immune stimulation” value in [9] (HPBL assay) turned out to be 100 pM. In addition, the “Stimulation of IgG Production, Percent” value in test [9] (HPBL, at the stimulating concentration) is 6200%. The “Proliferation ((3H) thymidine incorporation into DNA)” value in test [1] was 1.2. In addition, the “antibody titer versus control without antigen” value in [10] (in words) is reported as “titers of antibody increased over the control antibody titer significantly”. The “IC-50% Titer (Anti-CG)” value in [10] (treated 2+ months, tumor regressed) is on record as “Baseline Values”. In addition, the “slope M of Y = MX + B (linear regression of toxicity)” value in [11] (December 14, 1987) was found to be 0.05; in [11] (February 9, 1988), 0.35; in [11] (February 17, 1988), 0.75; in test [11] (March 31, 1988) it was 0.05. Further, the CML entry in [11] (additional 2 months of administration, no CG antigen, in words) is “significant increase in CML”. For the same compound, the “CG-specific CML” value in test [11] (after 14 days, I.P., M, W, F, in words) is “only baseline levels of CG-specific CML were present”. The “optimal dose in vivo, equivalent concentration with uniform distribution” value in [12] (100 ng/kg) is 250 pM. Also, in [12] (10 and 100 μg/kg, 1 ng/kg, in words), the “cytostatic activity at other doses” value is “Little or no cytostatic activity”. In addition, the “most effective dosage for inhibition of canine glioma” value in test [12] (I.P., M, W, F) was 100 ng/kg.
As to `Cc1c(/C=C/C(O)CC(O)CC(=O)O)ccc2c1C(O)CC(C)C2` (centres unmarked) [colletruncoic acid], in [13], the biomodulator activity entry was “has been shown to have biomodulator activity”.
As to Dextran, the “PFC response to TNP-Ficoll” value in test [14] was “some stimulatory effect; also recorded: marked cellular proliferation but little differentiative response”.
